# Source: patent US7160908B2, “Dynamic anticancer platinum compounds” (Unitech Pharmaceuticals, Inc., priority 2003, dated 2007)
# How the values were obtained:
# [1] = tested on: Ovary, OVCAR-3 Tumor Cell; assay: Anti-proliferative activity, alamarBlue cell viability, OVCAR-3; assay type: cell-based, human; details: for Percent Growth (Mean of 2): 72-hour incubation, vehicle = 100
# Protocol: (§1) UTD-4-A was dissolved in 100% DMSO and then diluted with sterile distilled water to obtain initial working solutions of […] in 40% DMSO. A 100-fold dilution was further made in culture media to generate final assay concentrations of […] in 0.4% DMSO.
# (§2) Aliquots of […] of cell suspension (about 2.5×10^3/well) were placed in 96-well microtiter plates in an atmosphere of 5% CO2 at 37° C. After 24 hours, […] of growth medium and […] of test solution or vehicle (40% DMSO) were added respectively per well in duplicate for an additional 72-hour incubation.
# (§3) Thus, the final concentration of DMSO was 0.4%. The test compound, UTD-4-A, was evaluated at concentrations of […]. At the end of incubation, […] of 90% alamarBlue reagent was added to each well for another 6-hour incubation before detection of cell viability by fluorescent intensity. Fluorescent intensity was measured using a Spectraflour Plus plate reader with excitation at 530 nm and emission at 590 nm.
# Colon, HT-29 Tumor Cells = assay: Anti-proliferative activity, alamarBlue cell viability, HT-29; assay type: cell-based, human; details: for Percent Growth (Mean of 2): 72-hour incubation, vehicle = 100
# Protocol: as §1, §2, §3
# [2] = concentrations between 10 and 100 μM
substance,measurement,setting,value
cis-[Pt(NH3)(NH2—CHCH3—CO—O)]Cl [UTD-4-A],Percent Growth (Mean of 2),[1]; 1 μM,100 ± 6
same,Percent Growth (Mean of 2),[1]; 10 μM,85 ± 3
same,Percent Growth (Mean of 2),[1]; 100 μM,30 ± 3
same,growth inhibition relative to the vehicle-treated control,[1]; [2],significant growth inhibition
same,Percent Growth (Mean of 2),"Colon, HT-29 Tumor Cells; 1 μM",100 ± 6
same,Percent Growth (Mean of 2),"Colon, HT-29 Tumor Cells; 10 μM",95 ± 8
same,Percent Growth (Mean of 2),"Colon, HT-29 Tumor Cells; 100 μM",41 ± 4
same,growth inhibition relative to the vehicle-treated control,"Colon, HT-29 Tumor Cells; [2]",significant growth inhibition
